The results in this text go back to ChEMBL document CHEMBL2413016, “Synthesis and in vivo evaluation of [(18)F]2-(4-(4-(2-(2-fluoroethoxy)phenyl)piperazin-1-yl)butyl)-4-methyl-1,2,4-triazine-3,5(2H,4H)-dione ([(18)F]FECUMI-101) as an imaging probe for 5-HT1A receptor agonist in nonhuman primates” (Bioorg Med Chem, 2013).

The term Ki denotes the equilibrium dissociation constant of an inhibitor or competing ligand from its target. Higher therefore signals lower affinity. The EC50 is the concentration giving half of the maximal effect. Usually Emax stands for the size of the effect at its maximum, as opposed to the concentration needed.

Structures are written as SMILES.

The target in one assay is D(1A) dopamine receptor (Homo sapiens, UniProt P21728). The experiment in a line: Binding affinity to dopamine 1 receptor (unknown origin).
Assay [1] deals with 5-hydroxytryptamine receptor 1B (Homo sapiens, UniProt P28222). The experiment in a line: Binding affinity to 5HT1B receptor (unknown origin).
In assay [2] the target is Sigma non-opioid intracellular receptor 1 (Homo sapiens, UniProt Q99720). The experiment in a line: Binding affinity to sigma 1 receptor (unknown origin).
Sigma non-opioid intracellular receptor 1, sequence (Q99720 whole entry): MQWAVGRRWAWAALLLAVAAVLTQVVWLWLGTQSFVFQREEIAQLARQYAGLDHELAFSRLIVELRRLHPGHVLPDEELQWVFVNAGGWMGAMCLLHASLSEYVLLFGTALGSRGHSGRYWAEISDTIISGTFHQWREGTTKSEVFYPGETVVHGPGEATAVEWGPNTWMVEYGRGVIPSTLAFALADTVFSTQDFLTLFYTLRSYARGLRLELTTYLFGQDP
For assay [3], the target named is 5-hydroxytryptamine receptor 1D (Homo sapiens, UniProt P28221). The experiment in a line: Binding affinity to 5HT1D receptor (unknown origin).
5-hydroxytryptamine receptor 1D, sequence (P28221 whole entry): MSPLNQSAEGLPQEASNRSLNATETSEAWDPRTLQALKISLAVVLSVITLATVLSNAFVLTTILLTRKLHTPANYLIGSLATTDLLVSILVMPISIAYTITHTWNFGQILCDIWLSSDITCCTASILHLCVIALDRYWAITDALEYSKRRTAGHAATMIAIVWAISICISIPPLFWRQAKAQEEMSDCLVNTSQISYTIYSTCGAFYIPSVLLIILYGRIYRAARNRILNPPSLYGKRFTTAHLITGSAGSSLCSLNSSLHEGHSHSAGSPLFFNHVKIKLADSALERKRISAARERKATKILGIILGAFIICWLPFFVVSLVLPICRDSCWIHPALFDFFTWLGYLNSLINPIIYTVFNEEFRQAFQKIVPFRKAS
For assay [4], the target named is 5-hydroxytryptamine receptor 7 (Homo sapiens, UniProt P34969). The experiment in a line: Binding affinity to 5HT7 receptor (unknown origin).
The nature of assay [5]: Binding affinity to sigma 2 receptor (unknown origin). Details: species or system Homo sapiens.
Assay [6] has as its target T1, 5-hydroxytryptamine receptor 1A (Homo sapiens, UniProt P08908).
T1 sequence (P08908 whole entry): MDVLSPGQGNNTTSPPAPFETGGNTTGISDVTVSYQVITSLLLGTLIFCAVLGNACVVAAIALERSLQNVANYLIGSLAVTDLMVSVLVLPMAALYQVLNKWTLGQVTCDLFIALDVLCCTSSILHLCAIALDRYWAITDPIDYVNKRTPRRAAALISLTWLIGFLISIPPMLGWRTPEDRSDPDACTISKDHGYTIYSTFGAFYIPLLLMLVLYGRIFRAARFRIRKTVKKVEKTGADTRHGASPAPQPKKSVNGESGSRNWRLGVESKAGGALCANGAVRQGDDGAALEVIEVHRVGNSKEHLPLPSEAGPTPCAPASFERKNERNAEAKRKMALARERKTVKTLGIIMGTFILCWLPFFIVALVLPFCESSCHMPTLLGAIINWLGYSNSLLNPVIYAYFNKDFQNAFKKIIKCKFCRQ
The experiment in a line: Partial agonist activity at human 5HT1A receptor expressed in CHO cells assessed as increase in [35S]GTPgammaS binding. The format is functional, cell-based. Background: GTPγS resists hydrolysis and so accumulates on activated G proteins.

The target in assay [7] is 5-hydroxytryptamine receptor 2B (Homo sapiens, UniProt P41595). The experiment in a line: Binding affinity to 5HT2B receptor (unknown origin).
In assay [8] the target is T1, 5-hydroxytryptamine receptor 1A. The experiment in a line: Binding affinity to 5HT1A receptor (unknown origin).
The next assay deals with D(4) dopamine receptor (Homo sapiens, UniProt P21917). The experiment in a line: Binding affinity to dopamine 4 receptor (unknown origin).
D(4) dopamine receptor, sequence (P21917 whole entry): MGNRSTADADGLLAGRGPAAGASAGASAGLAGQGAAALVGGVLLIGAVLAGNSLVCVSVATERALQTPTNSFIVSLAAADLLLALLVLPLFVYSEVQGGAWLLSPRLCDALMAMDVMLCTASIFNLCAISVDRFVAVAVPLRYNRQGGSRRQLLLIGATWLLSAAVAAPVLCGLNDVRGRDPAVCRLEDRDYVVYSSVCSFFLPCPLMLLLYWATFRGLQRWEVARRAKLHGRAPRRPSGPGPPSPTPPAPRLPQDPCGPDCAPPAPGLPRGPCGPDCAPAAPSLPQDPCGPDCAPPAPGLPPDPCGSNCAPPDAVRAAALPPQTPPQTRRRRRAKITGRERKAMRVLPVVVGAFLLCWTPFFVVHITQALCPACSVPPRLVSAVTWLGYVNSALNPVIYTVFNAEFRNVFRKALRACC
The target in assay [9] is Alpha-2B adrenergic receptor (Homo sapiens, UniProt P18089). The experiment in a line: Binding affinity to adrenergic alpha2B receptor (unknown origin).
Alpha-2B adrenergic receptor, sequence (P18089 whole entry): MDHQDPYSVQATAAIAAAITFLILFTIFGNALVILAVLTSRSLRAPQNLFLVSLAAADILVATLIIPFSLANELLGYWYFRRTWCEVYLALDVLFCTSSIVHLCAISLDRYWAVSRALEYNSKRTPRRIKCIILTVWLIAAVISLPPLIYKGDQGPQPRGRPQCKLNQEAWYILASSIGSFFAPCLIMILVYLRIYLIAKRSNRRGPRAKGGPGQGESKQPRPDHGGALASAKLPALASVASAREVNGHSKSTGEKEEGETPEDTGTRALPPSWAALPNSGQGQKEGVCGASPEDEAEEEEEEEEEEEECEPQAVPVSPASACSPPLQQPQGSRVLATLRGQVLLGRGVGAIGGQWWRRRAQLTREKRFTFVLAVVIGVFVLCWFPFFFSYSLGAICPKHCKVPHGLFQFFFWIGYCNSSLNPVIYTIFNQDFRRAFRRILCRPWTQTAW
The next assay deals with Histamine H2 receptor (Homo sapiens, UniProt P25021). The experiment in a line: Binding affinity to histamine H2 receptor (unknown origin).
Histamine H2 receptor, sequence (P25021 whole entry): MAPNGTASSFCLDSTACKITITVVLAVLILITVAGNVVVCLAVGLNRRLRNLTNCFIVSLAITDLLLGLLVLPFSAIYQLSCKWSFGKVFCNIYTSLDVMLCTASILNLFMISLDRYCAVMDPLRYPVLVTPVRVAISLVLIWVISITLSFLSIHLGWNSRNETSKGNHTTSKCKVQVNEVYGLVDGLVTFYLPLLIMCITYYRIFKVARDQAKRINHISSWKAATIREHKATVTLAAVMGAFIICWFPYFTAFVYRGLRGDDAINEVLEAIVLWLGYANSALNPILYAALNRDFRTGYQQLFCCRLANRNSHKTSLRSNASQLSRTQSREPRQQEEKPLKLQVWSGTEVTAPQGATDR
The target in another assay is D(3) dopamine receptor (Homo sapiens, UniProt P35462). The experiment in a line: Binding affinity to dopamine 3 receptor (unknown origin).
D(3) dopamine receptor, sequence (P35462 whole entry): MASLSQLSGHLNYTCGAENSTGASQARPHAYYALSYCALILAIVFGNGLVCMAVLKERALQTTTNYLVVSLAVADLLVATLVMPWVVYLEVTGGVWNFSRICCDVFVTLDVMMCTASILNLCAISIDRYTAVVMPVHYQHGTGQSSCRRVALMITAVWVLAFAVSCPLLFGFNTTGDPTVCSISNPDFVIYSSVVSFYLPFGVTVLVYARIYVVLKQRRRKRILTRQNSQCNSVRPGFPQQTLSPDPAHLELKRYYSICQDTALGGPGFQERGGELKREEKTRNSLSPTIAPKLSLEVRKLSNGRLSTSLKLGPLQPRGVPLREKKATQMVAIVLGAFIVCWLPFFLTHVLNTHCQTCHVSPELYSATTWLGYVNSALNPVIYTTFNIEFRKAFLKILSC
Assay [10] has as its target Alpha-2A adrenergic receptor (Homo sapiens, UniProt P08913). The experiment in a line: Binding affinity to adrenergic alpha2A receptor (unknown origin).
Assay [11] has as its target Alpha-1B adrenergic receptor (Homo sapiens, UniProt P35368). The experiment in a line: Binding affinity to adrenergic alpha1B receptor (unknown origin).
A further assay deals with D(2) dopamine receptor (Homo sapiens, UniProt P14416). The experiment in a line: Binding affinity to dopamine 2 receptor (unknown origin).
Assay [12] has as its target Alpha-1D adrenergic receptor (Homo sapiens, UniProt P25100). The experiment in a line: Binding affinity to adrenergic alpha1D receptor (unknown origin).
Assay [13] deals with 5-hydroxytryptamine receptor 1A (Homo sapiens) (UniProt P08908). The experiment in a line: Partial agonist activity at human 5HT1A receptor expressed in CHO cells assessed as increase in [35S]GTPgammaS binding relative to serotonin. The format is functional, cell-based.
Assay [14] concerns the target 5-hydroxytryptamine receptor 2A (Homo sapiens, UniProt P28223). The experiment in a line: Binding affinity to 5HT2A receptor (unknown origin).
For assay [15], the target named is Alpha-1A adrenergic receptor (Homo sapiens, UniProt P35348). The experiment in a line: Binding affinity to adrenergic alpha1A receptor (unknown origin).
Alpha-1A adrenergic receptor, sequence (P35348 whole entry): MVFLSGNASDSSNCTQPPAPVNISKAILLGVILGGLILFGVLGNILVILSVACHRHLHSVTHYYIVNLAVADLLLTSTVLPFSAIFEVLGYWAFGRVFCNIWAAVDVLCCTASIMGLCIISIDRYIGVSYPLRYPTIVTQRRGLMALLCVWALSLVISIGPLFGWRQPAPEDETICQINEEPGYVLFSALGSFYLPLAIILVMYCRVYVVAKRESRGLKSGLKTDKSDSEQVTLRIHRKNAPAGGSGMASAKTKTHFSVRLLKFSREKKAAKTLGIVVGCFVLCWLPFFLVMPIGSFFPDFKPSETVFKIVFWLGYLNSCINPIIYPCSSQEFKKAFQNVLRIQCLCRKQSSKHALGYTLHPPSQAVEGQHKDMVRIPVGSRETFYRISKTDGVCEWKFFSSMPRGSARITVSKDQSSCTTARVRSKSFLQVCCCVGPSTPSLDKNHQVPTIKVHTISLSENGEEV
The target of assay [16] is Alpha-2C adrenergic receptor (Homo sapiens, UniProt P18825). The experiment in a line: Binding affinity to adrenergic alpha2C receptor (unknown origin).
Assay [17] addresses 5-hydroxytryptamine receptor 5A (Homo sapiens, UniProt P47898). The experiment in a line: Binding affinity to 5HT5A receptor (unknown origin).
The target in the next assay is Histamine H1 receptor (Homo sapiens, UniProt P35367). The experiment in a line: Binding affinity to histamine H1 receptor (unknown origin).
Histamine H1 receptor, sequence (P35367 whole entry): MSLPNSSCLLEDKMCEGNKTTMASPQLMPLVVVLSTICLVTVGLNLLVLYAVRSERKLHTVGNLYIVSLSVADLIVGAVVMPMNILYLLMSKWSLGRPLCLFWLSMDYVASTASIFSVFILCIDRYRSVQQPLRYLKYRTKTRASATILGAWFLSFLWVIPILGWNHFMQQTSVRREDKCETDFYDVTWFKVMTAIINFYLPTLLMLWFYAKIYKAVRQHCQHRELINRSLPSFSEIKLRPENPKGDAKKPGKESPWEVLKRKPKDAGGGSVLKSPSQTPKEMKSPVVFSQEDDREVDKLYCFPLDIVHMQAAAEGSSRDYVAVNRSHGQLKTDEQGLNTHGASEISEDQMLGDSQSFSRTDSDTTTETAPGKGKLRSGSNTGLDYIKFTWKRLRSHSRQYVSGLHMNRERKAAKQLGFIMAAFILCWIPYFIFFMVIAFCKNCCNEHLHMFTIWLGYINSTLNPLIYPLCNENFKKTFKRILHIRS
A short description of assay [18]: Binding affinity to benzodiazepine receptor in rat brain. The format is tissue-based.

Alpha-1D adrenergic receptor, sequence (P25100 whole entry): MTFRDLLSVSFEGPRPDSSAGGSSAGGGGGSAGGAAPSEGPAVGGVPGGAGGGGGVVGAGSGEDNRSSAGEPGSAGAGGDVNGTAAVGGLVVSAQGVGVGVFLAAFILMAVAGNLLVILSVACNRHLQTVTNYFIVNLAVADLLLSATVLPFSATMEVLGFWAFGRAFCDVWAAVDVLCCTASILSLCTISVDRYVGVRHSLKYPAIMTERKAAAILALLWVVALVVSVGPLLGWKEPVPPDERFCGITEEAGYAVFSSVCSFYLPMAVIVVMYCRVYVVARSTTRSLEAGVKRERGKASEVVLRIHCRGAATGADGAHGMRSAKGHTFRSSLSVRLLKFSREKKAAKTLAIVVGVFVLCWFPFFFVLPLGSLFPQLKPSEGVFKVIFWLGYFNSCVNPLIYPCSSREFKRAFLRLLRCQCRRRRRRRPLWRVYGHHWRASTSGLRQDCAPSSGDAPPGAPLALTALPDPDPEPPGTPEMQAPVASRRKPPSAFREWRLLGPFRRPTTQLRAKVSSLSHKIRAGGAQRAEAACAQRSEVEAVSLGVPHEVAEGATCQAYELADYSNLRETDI
5-hydroxytryptamine receptor 5A, sequence (P47898 whole entry): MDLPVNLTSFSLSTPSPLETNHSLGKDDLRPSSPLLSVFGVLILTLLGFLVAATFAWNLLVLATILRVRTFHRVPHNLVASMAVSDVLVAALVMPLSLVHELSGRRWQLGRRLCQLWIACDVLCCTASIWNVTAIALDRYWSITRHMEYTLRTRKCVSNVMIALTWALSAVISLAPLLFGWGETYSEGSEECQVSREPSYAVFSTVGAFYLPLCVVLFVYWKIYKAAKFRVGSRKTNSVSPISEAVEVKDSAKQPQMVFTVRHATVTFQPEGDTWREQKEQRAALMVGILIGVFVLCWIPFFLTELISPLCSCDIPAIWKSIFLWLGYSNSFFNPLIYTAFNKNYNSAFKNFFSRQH
5-hydroxytryptamine receptor 2A, sequence (P28223 whole entry): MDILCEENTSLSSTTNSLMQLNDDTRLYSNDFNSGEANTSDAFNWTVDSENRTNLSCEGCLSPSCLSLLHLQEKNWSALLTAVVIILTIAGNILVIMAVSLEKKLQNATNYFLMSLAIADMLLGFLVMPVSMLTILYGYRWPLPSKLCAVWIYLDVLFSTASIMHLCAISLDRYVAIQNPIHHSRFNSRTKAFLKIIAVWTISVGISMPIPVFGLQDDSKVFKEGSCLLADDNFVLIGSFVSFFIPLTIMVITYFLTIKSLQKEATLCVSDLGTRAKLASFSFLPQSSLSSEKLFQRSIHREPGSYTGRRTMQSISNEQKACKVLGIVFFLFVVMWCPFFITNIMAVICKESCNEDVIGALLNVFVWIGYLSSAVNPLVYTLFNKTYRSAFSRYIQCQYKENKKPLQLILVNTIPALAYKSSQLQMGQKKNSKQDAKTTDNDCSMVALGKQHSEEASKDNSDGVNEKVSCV

Turning to `COc1ccccc1N1CCN(CCCCn2ncc(=O)n(C)c2=O)CC1`, the Ki at D(1A) dopamine receptor was above 10000 nM; in assay [1], 643 nM; in [2] it was 59 nM; in assay [3] it was 88.3 nM; in [4], 12.9 nM; in assay [5] it was 123 nM. The inhibitory constant (Ki) was 73.6 nM in assay [7]; 0.15 nM in [8]; 21 nM at D(4) dopamine receptor; 238 nM in [9]; 2130 nM at Histamine H2 receptor; above 10000 nM at D(3) dopamine receptor. In addition, the Ki was 96 nM in assay [10]; above 10000 nM in [11]; above 10000 nM on D(2) dopamine receptor; above 10000 nM in assay [12]; 4980 nM in assay [14]; 6.75 nM in assay [15]. In addition, the Ki in [16] is 15 nM; in assay [17], above 10000 nM; at Histamine H1 receptor it was 1030 nM; in [18] it was above 10000 nM. Moreover, the half-maximal effective concentration (EC50) in [6] was determined as 0.1 nM. Moreover, the maximal response (Emax) in assay [13] was 80%.
